# Test results published in patent US20090068290A1, “BIFEPRUNOX DOSES FOR TREATING SCHIZOPHRENIA” (priority 2006, published 2009).
# “Also recorded” adds a separate entry of the source. Where two headings read alike, the source gives them in different places.
# Experiments:
# [1] = tested on: patients with chronic schizophrenia; experiment: CDSS total score, Clinical Study Four; format: in vivo, human; conditions: FAS, ANCOVA; for CDSS total, Adjusted Mean Change from Baseline (LS mean): LOCF
# Procedure: (§1) METHODOLOGY: This study was a multinational, multicenter, randomized, double-blind, parallel-group, placebo-controlled, fixed-dose study. The study consisted of a 3- to 6-day antipsychotic-free run-in period, after which patients were randomised to 6 months of double-blind treatment with fixed doses of bifeprunox (20 mg/day (BX20) or 30 mg/day (BX30)) or placebo (PBO). Patients allocated to the BX groups were up-titrated from 0.25 mg/day over 7 days (BX20) or 8 days (BX30), and then continued on these doses for the remainder of the study. […] At predetermined time points, blood samples were obtained for drug concentration analysis of BX and its major metabolites (3′- and 4′-sulfate conjugates of BX), and pharmaco-economic assessments were performed.
# [2] = Pooled metabolic analysis, 6-month study: lipid profile
# From the text: OBJECTIVE: To examine the metabolic effects of bifeprunox in patients with acute and stable schizophrenia.
# METHODS: Metabolic data was compiled from one 6-month and four 6-week studies (i.e., a treatment period) of bifeprunox in patients with stable and acute schizophrenia, respectively. In the 6-month study, patients received bifeprunox (n=331) or placebo (PBO) (n=166). […] Metabolic evaluations included body weight, body mass index (BMI), plasma glucose and lipid profiles. Fasting glucose and lipid values were assessed in one 6-week study and in the 6-month study. Triglyceride:HDL ratio (TG:HDL) was calculated as a marker of insulin resistance. No statistical analyses were performed; only descriptive statistics are presented.
# [3] = tested on: patients with chronic schizophrenia; experiment: PANSS responders (reduction in PANSS total score), Clinical Study Four; format: in vivo, human; conditions: FAS, LOCF
# Procedure: as §1
# CLINICAL STUDY FOUR: The proportion of patients with a ≧25%, ≧35%, ≧45%, or ≧55% reduction in PANSS total score relative to baseline at each visit (PANSS responders) is shown by LOCF (FIG. 4).
# [4] = Laboratory assessments (prolactin, lipids), Clinical Study One; format: in vivo, human
# From the text: METHOD: A 6-Week randomized, placebo-controlled, risperidone-referenced dose-finding study included 589 randomized patients with an acute exacerbation of schizophrenia (DSM-IV-TR). […] The change in the Positive and Negative Symptom Scale (PANSS) total score, from baseline to endpoint, was the primary outcome measure. Secondary efficacy measures included: PANSS positive, PANSS negative, PANSS general psychopathology (GPP) score, PANSS-derived Brief Psychiatric Rating Scale (BPRS) score, Clinical Global Impressions-Severity of Illness (CGI-S), CGI-Improvement (CGI-I) scores, and responder rates. Safety and tolerability evaluations included extrapyramidal symptoms (EPS), weight gain, lipid profile, and serum prolactin. Risperidone was included for assay sensitivity.
# [5] = Pharmacokinetics of bifeprunox, pooled analysis and population PK; format: in vivo, human; conditions: for half-life: read-out: mean plasma steady-state (elimination) half-life (converted)
# From the text: The objective of this study is to assess the pharmacokinetics (PK) of bifeprunox. The PK of bifeprunox in healthy subjects were investigated based on a pooled analysis of PK parameters from 21 clinical pharmacology studies. The pooled analysis included PK profiles after single and multiple doses to 132 and 399 subjects, respectively, and explored the potential effects of age, gender, body weight, and race. In addition, PK in patients with schizophrenia were investigated using a population PK approach based on samples from 376 patients in phase II studies and 434 patients in phase III studies.
# [6] = Excretion of radioactivity after [14C]-labeled bifeprunox; conditions: single oral dose of [14C]-labeled bifeprunox
# [7] = Pharmacokinetic interaction of lithium and bifeprunox in healthy male subjects; format: in vivo, human; conditions: bifeprunox up to 40 mg per day and lithium 450 mg twice daily
# Procedure: Because bifeprunox may be used in combination with the mood-stabilizing drug lithium for the treatment of patients with psychoses and mood disorders, the effect of multiple doses of bifeprunox on the pharmacokinetic (PK) profile of lithium was evaluated. Lithium has a narrow therapeutic index that can complicate therapy, and serum levels greater than 1.5 mmol/L carry a greater risk of lithium toxicity than do lower levels.
# METHODS: This was a single center, double-blind, randomized, placebo-controlled, parallel-design study in 48 healthy male subjects. All subjects were to receive open-label lithium (450 mg) twice daily on days 1 through 8 and, provided serum levels were stable on days 5 through 7, again on days 9 through 20. Subjects whose serum levels were stable on days 5 through 7 were included in those randomized to receive, in addition to lithium 450 mg twice daily, either placebo or a rising dose of bifeprunox (0.025-40 mg) once daily on days 9 through 17, and placebo or bifeprunox 40 mg on days 18 through 21. Only a single morning dose of lithium 450 mg was administered on day 21. Lithium, steady-state Cmax, AUC over the dosing interval (0-t), and renal clearance (CL-R) values were compared between the bifeprunox and placebo groups using ANCOVA with baseline values of lithium measured on day 8 as covariate.
# [8] = tested on: patients with chronic schizophrenia; experiment: Adverse events incl. EPS TEAEs, Clinical Study Four; format: in vivo, human
# Procedure: OTHER SECONDARY OBJECTIVE: To evaluate the long-term safety and tolerability of bifeprunox versus placebo.
# as §1
# [9] = fasting, endpoint, 6-month study, BX total
structure (smiles),measurement,setting,value
"O=c1[nH]c2cccc(N3CCN(Cc4cccc(-c5ccccc5)c4)CC3)c2o1 [Bifeprunox, 7-[4-([1,1′-biphenyl]-3-ylmethyl)-1-piperazinyl]-2(3H)-benzoxazolone]","CDSS total, Adjusted Mean Change from Baseline (LS mean)","[1]; Month 6, listed as BX20",0.0
same,"CDSS total, Adjusted Mean Change from Baseline (LS mean)","[1]; Month 6, listed as BX30",0.1
same,"CDSS total, Adjusted Mean Change from Baseline (LS mean)","[1]; Week 6, listed as BX20",−0.2
same,"CDSS total, Adjusted Mean Change from Baseline (LS mean)","[1]; Week 6, listed as BX30",−0.1
same,"mean CDSS total scores versus PBO, per-visit LOCF analysis",[1]; either BX group,no statistically significant differences
same,change in total cholesterol (TC),[2]; 6-month study,-0.31 mmol/L
same,decrease in TG:HDL,[2]; 6-month study,23%
same,decrease in total cholesterol (TC),[2]; 6-month study,6%
same,total cholesterol and triglycerides (in words),[2]; 6-month study,reduced to a greater extent with bifeprunox than with placebo
same,"Fasting HDL, Mean change (SD)",[2]; [9],2.9 (9.3) mg/dL
same,"Fasting HDL, Percentage mean change",[2]; [9],6.2%
same,"Total cholesterol, Mean change (SD)",[2]; [9],−11.6 (29.7) mg/dL
same,"Total cholesterol, Percentage mean change",[2]; [9],−6.4%
same,"Triglyceride:HDL ratio, Mean change (SD)",[2]; [9],−0.4 (1.0)
same,"Triglyceride:HDL ratio, Percentage mean change",[2]; [9],−23.0%
same,"Triglycerides, Mean change (SD)",[2]; [9],−28.0 (76.0) mg/dL
same,"Triglycerides, Percentage mean change",[2]; [9],−19.4%
same,"Fasting LDL, Mean change (SD)",[2]; in vivo,−9.7 (27.6) mg/dL
same,"Fasting LDL, Percentage mean change",[2]; in vivo,−8.6%
same,change in TG values,[2]; over 6-months,-0.32 mmol/L
same,decrease in TG values,[2]; over 6-months,19%
same,proportion of patients with at least a 25% reduction in PANSS total score versus PBO,[3]; listed as BX20,statistically significantly larger than that in the PBO group from Week 9 onwards
same,proportion of patients with at least a 25% reduction in PANSS total score versus PBO,[3]; listed as BX30,statistically significantly larger than that in the PBO group at Month 5 only
same,prolactin,"[4]; bifeprunox 5-20 mg, 6 weeks, vs placebo",decreased prolactin levels; also recorded: a decrease in prolactin compared with the placebo group
same,non-fasting triglycerides and total cholesterol compared to placebo,"[4]; bifeprunox, 6 weeks (Example 4)",statistically significant improvements
same,half-life,"[5]; human, in vivo, po",14.4 h
same,Tmax,"[5]; human, in vivo, oral administration, all dose levels",1.5 to 2 h
same,half-life,"[5]; human, in vivo, oral",~14 h
same,dose proportionality of multiple-dose PK,[5],dose-proportional in the 20-40 mg/day range
same,dose proportionality of multiple-dose PK,[5]; listed as bifeprunox,dose-proportional in the 2040 mg range
same,"age-, gender-, body weight- or race-related effects on PK",[5]; pooled analysis,"No clinically significant age-, gender-, body weight- or race-related effects"
same,mean apparent clearance,"[5]; steady-state, oral",62.2 L/h
same,mean apparent volume of distribution,"[5]; steady-state, oral",1300 L
same,radioactivity excreted in the feces,[6],74%
same,radioactivity excreted in the urine,[6],13%
same,tolerability of combined administration,[7],well tolerated
same,patients with TEAEs related to EPS that led to withdrawal,[8]; BX20,4 patients
same,weight decreased reported as a TEAE,[8]; BX20,8%
same,"AKATHISIA, %","[8]; BX20, APTS",(6.9) %
same,"Choreoathetosis, %","[8]; BX20, APTS",(1.9) %
same,"DYSKINESIA, %","[8]; BX20, APTS",(1.3) %
same,"Dystonia, %","[8]; BX20, APTS",(0.6) %
same,"EPS TEAEs: MUSCULOSKELETAL AND CONNECTIVE TISSUE DISORDERS, %","[8]; BX20, APTS",(0.6) %
same,"EPS TEAEs: NERVOUS SYSTEM DISORDERS, %","[8]; BX20, APTS",(10.1) %
same,"EXTRAPYRAMIDAL DISORDER, %","[8]; BX20, APTS",(0.6) %
same,"Muscle rigidity, %","[8]; BX20, APTS",(0.6) %
same,"Patients with EPS TEAEs, %","[8]; BX20, APTS",(10.1) %
same,"TREMOR, %","[8]; BX20, APTS",(0.6) %
same,proportion of patients with TEAEs related to EPS,"[8]; BX20, APTS",10%
same,patients with TEAEs related to EPS that led to withdrawal,[8]; BX30,9 patients
same,weight decreased reported as a TEAE,[8]; BX30,8%
same,weight increased reported as a TEAE,[8]; BX30,1.2%
same,"AKATHISIA, %","[8]; BX30, APTS",(4.7) %
same,"Athetosis, %","[8]; BX30, APTS",(0.6) %
same,"Choreoathetosis, %","[8]; BX30, APTS",(0.6) %
same,"DYSKINESIA, %","[8]; BX30, APTS",(6.4) %
same,"EPS TEAEs: MUSCULOSKELETAL AND CONNECTIVE TISSUE DISORDERS, %","[8]; BX30, APTS",(0.6) %
same,"EPS TEAEs: NERVOUS SYSTEM DISORDERS, %","[8]; BX30, APTS",(14.5) %
same,"EXTRAPYRAMIDAL DISORDER, %","[8]; BX30, APTS",(2.9) %
same,"Muscle rigidity, %","[8]; BX30, APTS",(0.6) %
same,"Patients with EPS TEAEs, %","[8]; BX30, APTS",(14.5) %
same,"TREMOR, %","[8]; BX30, APTS",(2.9) %
same,proportion of patients with TEAEs related to EPS,"[8]; BX30, APTS",15%
